Assay results taken from patent US8729102B2, “Bicyclic compound” (Takeda Pharmaceutical Company Limited, priority 2010, dated 2014).

These compounds were tested against T1, Human ACC2 (ACC2 (Nd), N terminal deleted) (Homo sapiens, UniProt O00763) (assay: Measurement of ACC2 inhibitory activity (malachite green, recombinant ACC2 (Nd))). Details: 10 μM test compound; 20 min preincubation at 30° C., 20 min reaction; 10 µM.
T1 construct: made in house; host or cells: SF-9 insect cells (baculovirus)
Format: biochemical
Experimental: The ACC2 inhibitory action of the compound of the present invention was evaluated by the following method.
(1) Cloning of Human ACC2 Gene and Preparation of Recombinant Baculovirus
Human ACC2 gene was cloned by PCR using a human skeletal muscle cDNA library (Clontech) as a template and Primer 1 and Primer 2 shown below. Primer 1 and Primer 2 were prepared by adding SalI, XbaI restriction enzyme recognition sequences based on the information of the base sequence of human ACC2 gene (Genbank Accession U89344).
(§1) PCR was performed using Pyrobest DNA polymerase (TAKARA BIO INC.). The obtained PCR product was cloned to pT7 Blue vector (Novagen) and after confirmation of the base sequence, digested with restriction enzymes SalI and XbaI. The obtained DNA fragment was inserted into pFAST-BacHTa (Invitrogen) digested with restriction enzymes Sail and XbaI to give expression plasmid ACC2/pFAST-BacHTa.
A plasmid for expression of ACC2 without a mitochondrial targeting sequence was prepared by PCR using the expression plasmid as a template, and Primer 3 (salI restriction enzyme recognition sequence was added) and Primer 4, which are prepared by reference to the information of human ACC2 gene base sequence (Genbank Accession U89344).
as §1, with “Pyrobest-DNA” for “Pyrobest DNA”, “Aflil.” for “XbaI.”, “ACC2/pFAST-BacHTa” for “pFAST-BacHTa (Invitrogen)”, “SalI” for “Sail”, “AfilI” for “XbaI”, “ACC2mito7/pFAST-BacHTa.” for “ACC2/pFAST-BacHTa.”
Using the expression plasmid ACC2mito7/pFAST-BacHTa and BAC-TO-BAC Baculovirus Expression System (Invitrogen), virus stock BAC-ACC2 of recombinant Baculovirus (N terminal deleted (hereinafter Nd)) was prepared.
(2) Preparation of ACC2 (Nd) Protein
SF-9 cells (Invitrogen) were inoculated to a medium (2 L) for insect cells (Sf-900IISFM medium (Invitrogen) containing 10% fetal bovine serum (Trace), 50 mg/L Gentamicin (Invitrogen), 0.1% Pluronic F-68 (Invitrogen)) at 0.5×10^6 cells/mL, and cultured with shaking in Wave Bioreactor (Wave) at 27° C., 20 rpm, rocking angle 6°, oxygen concentration 30%.
On day 4 of the culture, 3 L of the medium for insect cells was added, the rocking angle was set to 8°, and the cells were further cultured. On day 5 of the culture, 100 mL of recombinant Baculovirus BAC-ACC2 (Nd) was added, 5 L of the medium for insect cells was further added, the rocking angle was set to 11°, and the cells were cultured for 3 days. The culture medium was centrifuged at 1000×g for 10 min to give virus-infected cells. The cells were washed with phosphate buffered saline (Invitrogen) and centrifuged under the same conditions. The obtained cells were cryopreserved at −80° C.
The cryopreserved cells were thawed in ice and suspended in 900 mL of 25 mM HEPES buffer (pH 7.5) containing 10% Glycerol, 0.13 M NaCl, 1 mM EDTA, 25 mM Sodium β-Glycerophosphate and 1 mM Sodium Orthovanadate, and supplemented with Complete Protease Inhibitor (Nippon Boehringer Ingelheim Co., Ltd.). The obtained suspension was homogenized three times in a polytron homogenizer (Kinematica) at 20,000 rpm for 30 sec. The obtained cell disruption solution was clarified by centrifugation at 31000×g for 60 min, and filtered through a 0.45 μm filter. The filtrate was passed through a column packed with 60 mL of Ni-NTA Super Flow Gel (QUIAGEN) at a flow rate of about 5 mL/min. The column was washed with buffer A (50 mM HEPES (pH 7.5) containing 0.3 M NaCl), further washed with buffer A containing 20 mM Imidazole, and eluted with buffer A containing 100 mM Imidazole. The eluate was concentrated with Vivaspin 20 (Vivascience) with a molecular weight cut off of 30K. The obtained concentrate was dialyzed against 50 mM HEPES (pH 7.5) containing 10 mM MgCl2, 2 mM Dithiothreitol, 10 mM Tripotassium Citrate and 0.3 M NaCl. […]

T1 sequence (O00763 117-2458 limits assumed, stated change not applied): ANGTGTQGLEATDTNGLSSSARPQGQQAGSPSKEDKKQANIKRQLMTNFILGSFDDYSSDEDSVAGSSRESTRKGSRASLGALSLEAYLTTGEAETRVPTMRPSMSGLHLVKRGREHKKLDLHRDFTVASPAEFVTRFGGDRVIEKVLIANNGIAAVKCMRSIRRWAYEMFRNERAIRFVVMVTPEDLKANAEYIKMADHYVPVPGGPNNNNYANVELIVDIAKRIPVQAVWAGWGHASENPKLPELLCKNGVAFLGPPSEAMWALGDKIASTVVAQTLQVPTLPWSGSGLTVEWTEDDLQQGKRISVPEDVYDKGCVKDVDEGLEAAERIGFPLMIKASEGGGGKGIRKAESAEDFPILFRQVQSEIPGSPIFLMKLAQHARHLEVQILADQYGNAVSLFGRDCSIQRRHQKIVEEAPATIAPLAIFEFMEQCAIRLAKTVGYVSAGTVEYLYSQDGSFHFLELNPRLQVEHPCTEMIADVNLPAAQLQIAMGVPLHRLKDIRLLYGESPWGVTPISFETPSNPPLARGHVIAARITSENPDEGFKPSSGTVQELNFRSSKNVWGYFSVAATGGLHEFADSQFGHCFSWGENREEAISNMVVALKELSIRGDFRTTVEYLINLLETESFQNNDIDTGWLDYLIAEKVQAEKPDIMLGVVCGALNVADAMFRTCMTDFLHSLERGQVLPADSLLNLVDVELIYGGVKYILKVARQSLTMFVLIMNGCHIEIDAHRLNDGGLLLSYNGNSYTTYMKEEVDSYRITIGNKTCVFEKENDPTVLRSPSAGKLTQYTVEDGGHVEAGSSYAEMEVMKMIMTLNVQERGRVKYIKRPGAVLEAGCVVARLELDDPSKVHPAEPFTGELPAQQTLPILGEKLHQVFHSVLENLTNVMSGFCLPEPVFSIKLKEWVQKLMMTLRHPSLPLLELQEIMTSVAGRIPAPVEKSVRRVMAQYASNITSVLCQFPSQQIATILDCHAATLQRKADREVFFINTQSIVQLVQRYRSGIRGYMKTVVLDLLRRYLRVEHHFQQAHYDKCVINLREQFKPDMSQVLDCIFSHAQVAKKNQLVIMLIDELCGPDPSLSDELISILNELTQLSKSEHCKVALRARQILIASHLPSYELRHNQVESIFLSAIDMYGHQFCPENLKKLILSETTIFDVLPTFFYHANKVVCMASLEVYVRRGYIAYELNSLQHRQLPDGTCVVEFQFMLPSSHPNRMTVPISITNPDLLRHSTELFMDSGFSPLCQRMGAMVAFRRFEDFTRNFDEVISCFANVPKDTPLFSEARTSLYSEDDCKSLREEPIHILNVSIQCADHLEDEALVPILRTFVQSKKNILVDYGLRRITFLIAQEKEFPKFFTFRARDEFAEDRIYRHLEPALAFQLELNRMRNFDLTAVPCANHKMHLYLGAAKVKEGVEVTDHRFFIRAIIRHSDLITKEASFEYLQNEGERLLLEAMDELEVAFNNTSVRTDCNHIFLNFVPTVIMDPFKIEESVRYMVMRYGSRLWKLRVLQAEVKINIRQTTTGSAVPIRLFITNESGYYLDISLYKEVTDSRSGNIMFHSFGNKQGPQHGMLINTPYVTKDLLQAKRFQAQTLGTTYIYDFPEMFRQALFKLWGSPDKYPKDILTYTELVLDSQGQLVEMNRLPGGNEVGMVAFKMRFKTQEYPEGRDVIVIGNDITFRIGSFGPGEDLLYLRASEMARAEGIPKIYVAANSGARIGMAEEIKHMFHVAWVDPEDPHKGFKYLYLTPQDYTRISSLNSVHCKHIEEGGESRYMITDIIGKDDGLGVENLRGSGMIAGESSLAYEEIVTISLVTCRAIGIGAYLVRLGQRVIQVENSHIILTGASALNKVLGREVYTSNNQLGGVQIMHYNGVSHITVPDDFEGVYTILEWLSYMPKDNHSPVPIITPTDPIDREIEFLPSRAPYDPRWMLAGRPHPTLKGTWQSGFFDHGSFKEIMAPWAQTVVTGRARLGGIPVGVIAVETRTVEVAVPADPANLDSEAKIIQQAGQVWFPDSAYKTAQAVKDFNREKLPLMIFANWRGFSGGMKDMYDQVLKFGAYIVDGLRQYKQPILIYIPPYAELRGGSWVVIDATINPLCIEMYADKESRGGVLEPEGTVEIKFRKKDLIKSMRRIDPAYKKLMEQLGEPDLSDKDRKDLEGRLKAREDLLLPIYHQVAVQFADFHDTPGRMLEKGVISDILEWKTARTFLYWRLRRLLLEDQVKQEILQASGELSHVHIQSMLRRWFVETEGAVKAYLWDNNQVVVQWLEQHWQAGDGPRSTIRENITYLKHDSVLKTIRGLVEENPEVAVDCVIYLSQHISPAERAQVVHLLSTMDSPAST

Row | ACC2 inhibitory rate at 10 μM (%) | SMILES
1 | 91% | CC(=O)N[C@@H](C)COc1cnc(-c2nc3ccc(OCC4CC4(F)F)cc3o2)c(F)c1 (stereo partly drawn) [Example 110, Diastereomer of N-{(1S)-2-[(6-{6-[(2,2-difluorocyclopropyl)methoxy]-1,3-benzoxazol-2-yl}-5-fluoropyridin-3-yl)oxy]-1-methylethyl}acetamide (retention time: long)]
2 | 100% | C[C@@H](COc1cnc(-c2nc3ccc(OCC4CC4(F)F)cc3o2)c(F)c1)NC(N)=O (stereo partly drawn) [Example 111, Diastereomer of 1-{(1S)-2-[(6-{6-[(2,2-difluorocyclopropyl)methoxy]-1,3-benzoxazol-2-yl}-5-fluoropyridin-3-yl)oxy]-1-methylethyl}urea (retention time: short)]

Same assay, conditions: 10 μM test compound; 20 min preincubation at 30° C., 20 min reaction; read-out: ACC2 inhibitory rate at 10 μM (%)

Row | SMILES | inhibition at 10 µM
3 | CC(=O)N[C@@H](C)COc1ccc(-c2nc3ccc(OCC4CC4)cc3o2)cc1 [Example 3, N-[(1S)-2-{4-[6-(cyclopropylmethoxy)-1,3-benzoxazol-2-yl]phenoxy}-1-methylethyl]acetamide] | 99%
4 | CC(=O)N[C@@H](C)COc1n[nH]c(-c2nc3ccc(OCC4CC4)cc3o2)c1F [Example 9, N-[(1S)-2-({5-[6-(cyclopropylmethoxy)-1,3-benzoxazol-2-yl]-4-fluoro-1H-pyrazol-3-yl}oxy)-1-methylethyl]acetamide] | 98%
5 | CC(=O)N[C@@H](C)COc1ccc(-n2cc3cc(OCC4CC4)ccc3n2)cc1 [Example 12, N-[(1S)-2-{4-[5-(cyclopropylmethoxy)-2H-indazol-2-yl]phenoxy}-1-methylethyl]acetamide] | 103%
6 | CC(=O)N[C@@H](C)COc1ccc(-n2cc3ccc(OCC4CC4)cc3n2)cc1 [Example 13, N-[(1S)-2-{4-[6-(cyclopropylmethoxy)-2H-indazol-2-yl]phenoxy}-1-methylethyl]acetamide] | 94%
7 | C[C@@H](COc1ccc(-c2nc3ccc(OCC4CC4)cc3o2)nc1)NC(N)=O [Example 15, 1-[(1S)-2-({6-[6-(cyclopropylmethoxy)-1,3-benzoxazol-2-yl]pyridin-3-yl}oxy)-1-methylethyl]urea] | 92%
8 | CNC(=O)N[C@@H](C)COc1ccc(-c2nc3ccc(OCC4CC4)cc3o2)nc1 [Example 16, 1-[(1S)-2-({6-[6-(cyclopropylmethoxy)-1,3-benzoxazol-2-yl]pyridin-3-yl}oxy)-1-methylethyl]-3-methylurea] | 93%
9 | COC(=O)N[C@@H](C)COc1ccc(-c2nc3ccc(OCC4CC4)cc3o2)nc1 [Example 17, methyl [(1S)-2-({6-[6-(cyclopropylmethoxy)-1,3-benzoxazol-2-yl]pyridin-3-yl}oxy)-1-methylethyl]carbamate] | 90%
10 | CC(=O)N[C@@H](C)COc1ccc(C2Cc3ccc(OCC4CC4)cc3O2)nc1 (stereo partly drawn) [Example 24, N-[(1S)-2-({6-[6-(cyclopropylmethoxy)-2,3-dihydro-1-benzofuran-2-yl]pyridin-3-yl}oxy)-1-methylethyl]acetamide] | 90%
11 | CCOc1ccc2cn(-c3ccc(OC[C@H](C)NC(C)=O)cc3F)nc2c1 [Example 25, N-{(1S)-2-[4-(6-ethoxy-2H-indazol-2-yl)-3-fluorophenoxy]-1-methylethyl}acetamide monohydrate] | 90%
12 | CCOc1ccc2cn(-c3ccc(OC[C@H](C)NC(C)=O)cc3)nc2c1 [Example 26, N-{(1S)-2-[4-(6-ethoxy-2H-indazol-2-yl)phenoxy]-1-methylethyl}acetamide] | 95%
13 | CC(=O)N[C@@H](C)COc1ccc(-c2nc3ccc(OCC(C)(F)F)cc3o2)nc1 [Example 30] | 100%
14 | CC(=O)N[C@@H](C)COc1cc(-c2nc3cc(OC(C)C)ccc3o2)on1 [Example 33, N-[(1S)-1-methyl-2-({5-[5-(1-methylethoxy)-1,3-benzoxazol-2-yl]isoxazol-3-yl}oxy)ethyl]acetamide] | 85%
15 | C[C@@H](COc1ccc(-n2cc3ccc(OCC4CC4)cc3n2)cc1)NC(=O)N(C)C [Example 63, 3-[(1S)-2-{4-[6-(cyclopropylmethoxy)-2H-indazol-2-yl]phenoxy}-1-methylethyl]-1,1-dimethylurea] | 93%
16 | CC(=O)N[C@@H](C)COc1cc(F)c(-n2cc3ccc(OCC4CC4)cc3n2)cc1F [Example 70, N-[(1S)-2-{4-[6-(cyclopropylmethoxy)-2H-indazol-2-yl]-2,5-difluorophenoxy}-1-methylethyl]acetamide] | 93%
17 | CC(=O)N[C@@H](C)COc1ccc(-n2nc3cc(OCC4CC4)ccc3c2F)cc1 [Example 73, N-[(1S)-2-{4-[6-(cyclopropylmethoxy)-3-fluoro-2H-indazol-2-yl]phenoxy}-1-methylethyl]acetamide] | 99%
18 | CCOc1ccc2cc(-c3ccc(OC[C@H](C)NC(C)=O)cc3)nn2c1 [Example 85, N-{(1S)-2-[4-(6-ethoxypyrazolo[1,5-a]pyridin-2-yl)phenoxy]-1-methylethyl}acetamide] | 93%
19 | CC(=O)N[C@@H](C)COc1ccc(-c2nc3ccc(OCC4CC4)cn3n2)cc1 [Example 89, N-[(1S)-2-{4-[6-(cyclopropylmethoxy)[1,2,4]triazolo[1,5-a]pyridin-2-yl]phenoxy}-1-methylethyl]acetamide] | 94%

Continued, values first:

Row | inhibition at 10 µM | SMILES
20 | 93% | CC(=O)N[C@@H](C)COc1ccc(-c2nc3ccc(OCC4CC4)cn3c2F)cc1 [Example 92, N-[(1S)-2-{4-[6-(cyclopropylmethoxy)-3-fluoroimidazo[1,2-a]pyridin-2-yl]phenoxy}-1-methylethyl]acetamide]
21 | 94% | CC(=O)N[C@@H](C)COc1ccc(-c2nc3cc(OCC4CC4)ccn3n2)cc1 [Example 95, N-[(1S)-2-{4-[7-(cyclopropylmethoxy) [1,2,4]triazolo[1,5-a]pyridin-2-yl]phenoxy}-1-methylethyl]acetamide]
22 | 95% | C[C@@H](COc1cnc(-c2nc3ccc(OCC4CC4(F)F)cc3o2)c(F)c1)NC(N)=O (some centres unmarked) [Example 97]
23 | 90% | CCOc1ccc2c(F)c(-c3ccc(OC[C@H](C)NC(C)=O)cc3F)nn2c1 [Example 100, N-{(1S)-2-[4-(6-ethoxy-3-fluoropyrazolo[1,5-a]pyridin-2-yl)-3-fluorophenoxy]-1-methylethyl}acetamide]
24 | 99% | CC(=O)N[C@@H](C)COc1ccc(-c2nn3cc(OCC4CC4)ccc3c2F)c(F)c1 [Example 102, N-[(1S)-2-{4-[6-(cyclopropylmethoxy)-3-fluoropyrazolo[1,5-a]pyridin-2-yl]-3-fluorophenoxy}-1-methylethyl]acetamide]
25 | 102% | CC(=O)N[C@@H](C)COc1ccc(-c2cc3ccc(OCC4CC4)cn3n2)c(F)c1 [Example 104, N-[(1S)-2-{4-[6-(cyclopropylmethoxy)pyrazolo[1,5-a]pyridin-2-yl]-3-fluorophenoxy}-1-methylethyl]acetamide]
26 | 95% | CC(=O)N[C@@H](C)COc1cnc(-c2nc3ccc(OCC4CC4(F)F)cc3o2)c(F)c1 (stereo partly drawn) [Example 109, Diastereomer of N-{(1S)-2-[(6-{6-[(2,2-difluorocyclopropyl)methoxy]-1,3-benzoxazol-2-yl}-5-fluoropyridin-3-yl)oxy]-1-methylethyl}acetamide (retention time: short)]
